This note sets out measurements from US8044198B2, “Sirtuin modulating compounds” (Sirtris Pharmaceuticals, Inc., priority 2005, dated 2011).

Some results are limits rather than exact numbers.

The target of the assay is T1, SIRT1 (Homo sapiens, UniProt Q96EB6).
T1 sequence (Q96EB6 1-747): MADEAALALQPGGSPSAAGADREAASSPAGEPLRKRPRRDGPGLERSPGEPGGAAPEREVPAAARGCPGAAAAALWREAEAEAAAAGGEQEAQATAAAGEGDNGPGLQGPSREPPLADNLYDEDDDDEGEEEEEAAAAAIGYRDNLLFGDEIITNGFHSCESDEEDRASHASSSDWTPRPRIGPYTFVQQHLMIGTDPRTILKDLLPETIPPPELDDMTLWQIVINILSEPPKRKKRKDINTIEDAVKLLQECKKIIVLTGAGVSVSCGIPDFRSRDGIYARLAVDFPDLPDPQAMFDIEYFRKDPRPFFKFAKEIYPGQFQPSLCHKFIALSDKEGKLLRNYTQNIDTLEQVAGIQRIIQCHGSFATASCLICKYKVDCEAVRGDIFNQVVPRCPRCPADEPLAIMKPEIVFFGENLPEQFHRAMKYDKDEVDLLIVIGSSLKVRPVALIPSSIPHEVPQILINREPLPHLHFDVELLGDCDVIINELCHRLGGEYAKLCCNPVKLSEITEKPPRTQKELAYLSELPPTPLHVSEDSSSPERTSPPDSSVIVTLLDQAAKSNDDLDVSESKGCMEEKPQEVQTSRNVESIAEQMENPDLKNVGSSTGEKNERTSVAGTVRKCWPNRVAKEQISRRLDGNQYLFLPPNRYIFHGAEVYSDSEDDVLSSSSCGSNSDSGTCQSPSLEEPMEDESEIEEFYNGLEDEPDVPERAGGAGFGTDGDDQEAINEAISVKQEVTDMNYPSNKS
The experiment in a line: SIRT1 mass spectrometry (MS) based deacetylation assay. For FOLD ACT. MS: test concentration or dose not given here. Type of assay: biochemical. Particulars: Sirt1 activators; for FOLD ACT. MS: fold activation as determined by MS; for EC50: mass spectrometry assay, read-out: ED50 MS ASSAY.

`COc1cc(C(=O)Nc2ccccc2-c2nc3cccnc3[nH]2)ccc1CN1CCOCC1` [Compound 537]: the “FOLD ACT. MS” value is listed as “A (A (Fold activation >250%))” and the EC50 was less than 5 µM.

`COc1cc(C(=O)Nc2ccccc2-c2nc3cccnc3[nH]2)ccc1CN1CCNCC1` [Compound 538]: the “FOLD ACT. MS” value is reported as “A (A (Fold activation >250%))” and the EC50 lay in the range of 5 to 50 µM.

`COc1cc(C(=O)Nc2ccccc2-c2nc3cccnc3[nH]2)ccc1CN1CCN(C)CC1` [Compound 539]: the “FOLD ACT. MS” value is listed as “A (A (Fold activation >250%))” and the EC50 is less than 5 µM.

Regarding `COc1cc(C(=O)Nc2ccccc2-c2nc3cccnc3[nH]2)ccc1CN(C)C` [Compound 540], the “FOLD ACT. MS” value is listed as “A (A (Fold activation >250%))” and the EC50 lay within 5 to 50 µM.

In the case of `COc1cc(C(=O)Nc2ccccc2-c2cn3ccccc3n2)ccc1CN1CCOCC1` [Compound 541], the “FOLD ACT. MS” value is “B (B (Fold Activation <250%))” and the EC50 was in the range of 5 to 50 µM.

For the compound `COc1cc(C(=O)Nc2ccccc2-c2cn3cccnc3n2)ccc1CN1CCOCC1` [Compound 542], the “FOLD ACT. MS” value is given as “A (A (Fold activation >250%))” and the EC50 was 5 to 50 µM.

`O=C(Nc1ccccc1-c1cn2c(CN3CCNCC3)csc2n1)c1cnccn1` [Compound 543]: the “FOLD ACT. MS” value is on record as “A (A (Fold activation >250%))” and the EC50 was less than 5 µM.

Take `O=C(Nc1ccccc1-c1cn2c(CN3CCNCC3)csc2n1)c1cc2ccccc2s1` [Compound 544]: the “FOLD ACT. MS” value was “A (A (Fold activation >250%))” and the EC50 lay within 5 to 50 µM.

In the case of `COc1ccc(C(=O)Nc2ccccc2-c2cn3c(n2)CCCC3)cc1OC` [Compound 545], the “FOLD ACT. MS” value was “B (B (Fold Activation <250%))” and the EC50 was in the range of 5 to 50 µM.

For `COc1cc(C(=O)Nc2ccccc2-c2cn3c(n2)CCCC3)cc(OC)c1OC` [Compound 546], the “FOLD ACT. MS” value is recorded as “B (B (Fold Activation <250%))” and the EC50 lay in the range of 5 to 50 µM.

As for `O=C(Nc1ccccc1-c1cn2c(n1)CCCC2)c1ccc2ccccc2n1` [Compound 547], the “FOLD ACT. MS” value was “B (B (Fold Activation <250%))” and the EC50 was less than 5 µM.

Turning to `O=C(Nc1ccccc1-c1cn2c(n1)CCCC2)c1cnc2ccccc2n1` [Compound 548], the “FOLD ACT. MS” value is recorded as “B (B (Fold Activation <250%))” and the EC50 is less than 5 µM.

With `O=C(Nc1ccccc1-c1nc2ccccc2[nH]1)c1ccc2ccccc2n1` [Compound 556], the “FOLD ACT. MS” value was “A (A (Fold activation >250%))” and the EC50 is less than 5 µM.

With `COc1cc(C(=O)Nc2ccccc2-c2nc3ccccc3[nH]2)ccc1CN1CCNCC1` [Compound 558], the “FOLD ACT. MS” value was “A (A (Fold activation >250%))” and the EC50 is less than 5 µM.

With `COc1ccc(C(=O)Nc2ccc(-c3nc4ccncc4o3)s2)c(OC)c1` [Compound 561], the “FOLD ACT. MS” value is reported as “B (B (Fold Activation <250%))” and the EC50 is less than 5 µM.

With `COc1cc(OC)cc(C(=O)Nc2ccc(-c3nc4ccncc4o3)s2)c1` [Compound 562], the “FOLD ACT. MS” value is given as “B (B (Fold Activation <250%))” and the EC50 was less than 5 µM.

Turning to `COc1cc(C(=O)Nc2ccc(-c3nc4ccncc4o3)s2)cc(OC)c1OC` [Compound 563], the “FOLD ACT. MS” value is listed as “B (B (Fold Activation <250%))” and the EC50 was 5 to 50 µM.

On to `CS(=O)(=O)Nc1cccc(C(=O)Nc2cc(-c3nc4ncccc4o3)ccn2)c1` [Compound 566], for which the “FOLD ACT. MS” value was “B (B (Fold Activation <250%))” and the EC50 fell in the range of 5 to 50 µM.

For `COc1cc(C(=O)Nc2cc(-c3nc4ncccc4o3)ccn2)ccc1CN1CCCCC1` [Compound 571], the “FOLD ACT. MS” value was “B (B (Fold Activation <250%))” and the EC50 lay in the range of 5 to 50 µM.

On to `COc1cc(C(=O)Nc2cc(-c3nc4ncccc4o3)ccn2)ccc1CN1CCCC1` [Compound 572], for which the “FOLD ACT. MS” value is recorded as “B (B (Fold Activation <250%))” and the EC50 was 51 to 100 µM.

As for `CCn1ccc(C(=O)Nc2ccccc2-c2nc3ncccc3o2)n1` [Compound 581], the “FOLD ACT. MS” value was “B (B (Fold Activation <250%))” and the EC50 lay within 5 to 50 µM.

For `COc1cc(C(=O)Nc2ccccc2-c2nc3ncccc3o2)ccc1CN1CCCCC1` [Compound 585], the “FOLD ACT. MS” value is “B (B (Fold Activation <250%))” and the EC50 fell in the range of 5 to 50 µM.

Regarding `COc1cc(C(=O)Nc2ccccc2-c2nc3ccccc3[nH]2)ccc1CN1CCCC1` [Compound 587], the “FOLD ACT. MS” value is on record as “B (B (Fold Activation <250%))” and the EC50 is less than 5 µM.

Regarding `COc1cc(C(=O)Nc2ccccc2-c2nc3cc(CN4CCNCC4)cnc3s2)cc(OC)c1OC` [Compound 588], the “FOLD ACT. MS” value is on record as “A (A (Fold activation >250%))” and the EC50 was in the range of 5 to 50 µM.

Regarding `COc1cc(OC)cc(C(=O)Nc2ccccc2-c2nc3cc(CN4CCNCC4)cnc3s2)c1` [Compound 589], the “FOLD ACT. MS” value was “A (A (Fold activation >250%))” and the EC50 was less than 5 µM.

Turning to `O=C(Nc1ccccc1-c1nc2cc(CN3CCNCC3)cnc2s1)c1ccc2c(c1)OCO2` [Compound 590], the “FOLD ACT. MS” value is reported as “B (B (Fold Activation <250%))” and the EC50 lay within 5 to 50 µM.

Regarding `Cc1ccc(C(=O)Nc2ccccc2-c2nc3cc(CN4CCNCC4)cnc3s2)cc1C` [Compound 591], the “FOLD ACT. MS” value is recorded as “A (A (Fold activation >250%))” and the EC50 was less than 5 µM.

In the case of `N#Cc1cccc(C(=O)Nc2ccccc2-c2nc3cc(CN4CCNCC4)cnc3s2)c1` [Compound 592], the “FOLD ACT. MS” value was “B (B (Fold Activation <250%))” and the EC50 was less than 5 µM.

On to `CN(C)c1cccc(C(=O)Nc2ccccc2-c2nc3cc(CN4CCNCC4)cnc3s2)c1` [Compound 593], for which the “FOLD ACT. MS” value is recorded as “A (A (Fold activation >250%))” and the EC50 is less than 5 µM.

As to `O=C(Nc1ccccc1-c1nc2cc(CN3CCNCC3)cnc2s1)c1ccc(F)c(F)c1` [Compound 594], the “FOLD ACT. MS” value was “B (B (Fold Activation <250%))” and the EC50 was in the range of 5 to 50 µM.

`O=C(Nc1ccccc1-c1nc2ccncc2s1)c1cc(C(F)(F)F)ccc1C(F)(F)F` [Compound 596]: the EC50 was less than 5 µM.

On to `COc1ccc(OC(=O)Nc2ccccc2-c2nc3ccncc3s2)cc1` [Compound 597], for which the EC50 was less than 5 µM.

Turning to `COc1ccc(NC(=S)Nc2cccc(-c3nc4ccncc4s3)c2)c(OC)c1` [Compound 599], the EC50 is less than 5 µM.

For `COc1ccc(NC(=S)Nc2cccc(-c3nc4ccncc4s3)c2)cc1OC` [Compound 600], the EC50 was more than 150 µM.

In the case of `O=C(Nc1ccccc1-c1cn2c(CN3CCOCC3)csc2n1)c1cnc2ccccc2n1` [Compound 617], the “FOLD ACT. MS” value is listed as “A (A (Fold activation >250%))” and the EC50 was less than 5 µM.

Regarding `O=C(Nc1ccccc1-c1cn2c(CN3CCCCC3)csc2n1)c1cnc2ccccc2n1` [Compound 618], the “FOLD ACT. MS” value was “B (B (Fold Activation <250%))” and the EC50 is less than 5 µM.

For the compound `O=C(Nc1ccccc1-c1cn2c(CN3CCCC3)csc2n1)c1cnc2ccccc2n1` [Compound 619], the “FOLD ACT. MS” value was “B (B (Fold Activation <250%))” and the EC50 was less than 5 µM.

With `COc1cc(C(=O)Nc2ccccc2-c2cn3c(CN4CCCC4)csc3n2)cc(OC)c1OC` [Compound 620], the “FOLD ACT. MS” value is “B (B (Fold Activation <250%))” and the EC50 is less than 5 µM.

Consider `O=C(Nc1ncccc1-c1cn2c(CN3CCOCC3)csc2n1)c1cnc2ccccc2n1` [Compound 621], for which the “FOLD ACT. MS” value was “A (A (Fold activation >250%))” and the EC50 is less than 5 µM.

In the case of `O=C(Nc1ccccc1-c1nc2cc(CN3CCNCC3)cnc2s1)c1cnc2ccccc2n1` [Compound 622], the “FOLD ACT. MS” value is “A (A (Fold activation >250%))” and the EC50 is less than 5 µM.

For the compound `O=C(Nc1ccccc1-c1cn2c(CN3CCNCC3)csc2n1)c1cc2ccccc2o1` [Compound 624], the “FOLD ACT. MS” value was “A (A (Fold activation >250%))” and the EC50 is less than 5 µM.

Turning to `O=C(Nc1ccccc1-c1cn2c(CN3CCNCC3)csc2n1)c1cc(-c2ccccc2)ncn1` [Compound 625], the “FOLD ACT. MS” value is “A (A (Fold activation >250%))” and the EC50 is less than 5 µM.

For the compound `O=C(Nc1ccccc1-c1cn2c(CN3CCN(Cc4ccccc4)CC3=O)csc2n1)c1cnc2ccccc2n1` [Compound 628], the “FOLD ACT. MS” value was “B (B (Fold Activation <250%))” and the EC50 is less than 5 µM.

For `COc1cc(C(=O)Nc2ccccc2-c2nc3ncccc3o2)ccc1CN1CCCC1` [Compound 629], the “FOLD ACT. MS” value was “A (A (Fold activation >250%))” and the EC50 fell in the range of 5 to 50 µM.

As for `COc1cc(C(=O)Nc2ccccc2-c2nc3ncccc3o2)ccc1CN(C)C` [Compound 630], the “FOLD ACT. MS” value is on record as “A (A (Fold activation >250%))” and the EC50 was in the range of 5 to 50 µM.

As to `COc1cc(C(=O)Nc2ccccc2-c2nc3ncccc3o2)ccc1CN1CCOCC1` [Compound 631], the “FOLD ACT. MS” value is given as “B (B (Fold Activation <250%))” and the EC50 is less than 5 µM.
